Experimental findings from US6432711B1, “Embryonic stem cells capable of differentiating into desired cell lines” (Diacrin, Inc., priority 1993, dated 2002) are described below.

Common to all, as to type: cell-based
For experiment [1], the system named is embryonic stem cells (ES-D3). The experiment can be described thus: Differentiation of embryonic stem cell aggregates into contracting muscle cells by dimethylsulfoxide induction. The note with it: 1% (by volume) dimethylsulfoxide in DMEM plus 10% horse serum, aggregates cultured 5 days in multi-well dishes. From the text:
Undifferentiated embryonic stem cells (ES-D3, purchased from the American Type Culture Collection as ATCC catalog no. ATCC CRL 1934) are maintained in supplemented Dulbecco's modified Minimal Essential Medium as described in Example 1. The embryonic stem cells then are trypsinized and washed free of LIF and placed in 1% (by volume) dimethylsulfoxide in DMEM plus 10% horse serum. Two days after the addition of dimethylsulfoxide and plating of cells in Petri dishes to form aggregates, the aggregates are collected and resuspended in fresh medium plus 1% dimethylsulfoxide. The aggregates are then plated onto multi-well untreated culture grade dishes without trypsin treatment. One aggregate is plated per well. The aggregates are cultured for 5 days. Upon culturing of the cells in multi-well dishes, cell cultures in which greater than 80% of the aggregates contain contracting muscle cells are obtained. Such cells may be used to treat cardiomyopathies, myocardial infarction, congestive heart failure, or muscular dystrophy.

Experiment [2] has as its system D3 and E14 TG2a embryonic stem cell lines transfected with mouse MyoD cDNA. Nature of the experiment: Differentiation of MyoD-transfected embryonic stem cell lines into muscle after dimethylsulfoxide induction. As to the method: For transfection of embryonic stem cells with mouse MyoD cDNA, both the D3 (ATCC catalog no. CRL 1934) and E14 TG2a (ATCC catalog no. CRL 1821) embryonic stem cell lines were used. Embryonic stem cells were cultured as described in Robertson, 1987, except that the cells were maintained in media containing 5 ng/ml human recombinant leukemia inhibitory factor instead of on feeder layers.
Embryonic stem cells were co-transfected with pKJ1-Neo (Dinsmore, et al., Cell, Vol. 64, pgs. 817-826 (1991)), which carries the neomycin resistance gene for selection of stable transfectants, and with pEMCII (Davis, et al., Cell, Vol. 51, pgs. 987-1000 (1987)), which contains a portion of the mouse MyoD cDNA. pKJ1-Neo was linearized at the unique NsiI site and pEMCII was linearized at the unique ScaI site. In order to introduce the linearized plasmids into the embryonic stem cells, the embryonic stem cells were electroporated using a Gene Pulser (Bio Rad) in 0.4 cm gap distance electroporation cuvettes with the Gene Pulser set at 240 volts, 500μ Farads. […]
Stable transfectants were isolated, expanded, frozen, and then stored in liquid nitrogen. […] The percentage of cells that differentiated into skeletal muscle was greater than 90% as assessed by staining for muscle specific myosin, and by the ability of these cells to fuse and form myotubes that spontaneously twitch. […]

Experiment [3] concerns embryonic stem cells (ES-E14TG2a). Nature of the experiment: Differentiation of embryonic stem cells into neuronal cells by retinoic acid induction. The note with it: 0.5 μM retinoic acid, aggregates induced four days in DMEM plus 10% FBS, then cultured 5 days in stem cell medium on poly-D-lysine. The source says: Undifferentiated embryonic stem cells (ES-E14TG2a, purchased from the American Type Culture Collection, catalog no. ATCC CRL 1821) are maintained in Dulbecco's modified Minimal Essential Medium (DMEM) supplemented with glutamine, β-mercaptoethanol, 10% (by volume) horse serum, and human recombinant Leukemia Inhibitory Factor (LIF). The LIF replaces the need for maintaining embryonic stem cells on feeder layers of cells, and is essential for maintaining embryonic stem cells in an undifferentiated state.
In order to promote the differentiation of the embryonic stem cells into neuronal cells, the embryonic stem cells are trypsinized and washed free of LIF, and placed in DMEM supplemented with 10% (by volume) fetal bovine serum (FBS). After resuspension in DMEM and 10% FBS, 1×10^6 cells are plated in 5 ml DMEM plus 10% FBS plus 0.5 μM retinoic acid in a 60 mm Fisher brand bacteriological grade Petri dish. In such Petri dishes, embryonic stem cells cannot adhere to the dish, and instead adhere to each other, thus forming small aggregates of cells. Aggregation of cells aids in enabling proper cell differentiation. After two days, aggregates of cells are collected and resuspended in fresh DMEM plus 10% FBS plus 0.5 μM retinoic acid, and replated in Petri dishes for an additional two days. […]

In the case of `C[S+](C)[O-]` [dimethylsulfoxide], the “percentage of aggregates that contain contracting muscle cells” value in experiment [1] is on record as “greater than 80%”. Moreover, the “cell types obtained after induction” value in experiment [2] (MyoD transformants expressing very low amounts of MyoD, indistinguishable from non-transfected embryonic stem cells) is “mix of cardiac, smooth, and skeletal muscle”. The “percentage of cells that differentiated into skeletal muscle” value in experiment [2] (cell lines expressing high amounts of MyoD, staining for muscle specific myosin, fusion into twitching myotubes) is listed as “greater than 90%”.
Turning to `CC1=C(/C=C/C(C)=C/C=C/C(C)=C/C(=O)O)C(C)(C)CCC1` [retinoic acid], in experiment [3], the “percentage of cells in the culture that are neuronal cells” value is reported as “greater than 90%”.
